In the assay the target is T1, HMG-CoA reductase (Rattus norvegicus, UniProt P51639).
T1 construct: were preincubated with liver microsomes at 37° C. for 30 minutes; from tissue
T1 sequence (P51639 1-887): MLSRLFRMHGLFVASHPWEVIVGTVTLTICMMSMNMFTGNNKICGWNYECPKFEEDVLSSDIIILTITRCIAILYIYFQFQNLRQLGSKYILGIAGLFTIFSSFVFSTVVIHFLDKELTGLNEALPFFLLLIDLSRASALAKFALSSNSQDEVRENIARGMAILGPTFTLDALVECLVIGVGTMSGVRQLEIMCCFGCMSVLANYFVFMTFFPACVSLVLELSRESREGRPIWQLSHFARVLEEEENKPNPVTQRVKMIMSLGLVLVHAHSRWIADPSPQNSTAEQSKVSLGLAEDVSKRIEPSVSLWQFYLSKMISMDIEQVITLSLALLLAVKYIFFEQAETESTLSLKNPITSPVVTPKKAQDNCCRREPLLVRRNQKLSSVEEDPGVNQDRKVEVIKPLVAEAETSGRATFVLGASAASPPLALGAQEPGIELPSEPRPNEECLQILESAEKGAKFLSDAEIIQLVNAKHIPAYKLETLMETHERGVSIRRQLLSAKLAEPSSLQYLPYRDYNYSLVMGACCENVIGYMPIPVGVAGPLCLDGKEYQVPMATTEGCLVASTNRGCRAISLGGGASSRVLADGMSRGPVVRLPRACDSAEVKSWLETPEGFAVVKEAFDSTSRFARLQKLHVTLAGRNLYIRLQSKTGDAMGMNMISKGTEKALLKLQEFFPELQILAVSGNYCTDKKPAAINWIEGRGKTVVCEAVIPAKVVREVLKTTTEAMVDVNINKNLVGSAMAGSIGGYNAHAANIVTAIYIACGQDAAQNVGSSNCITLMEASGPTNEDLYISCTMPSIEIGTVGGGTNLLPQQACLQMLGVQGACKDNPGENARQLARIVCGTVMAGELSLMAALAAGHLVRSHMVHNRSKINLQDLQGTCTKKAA
The assay is described as follows: in-vitro HMG-CoA reductase enzyme assay (liver microsomes, [14C] HMG-CoA). It is filed as biochemical. The following applies: 2.5 μM [14C] HMG-CoA as substrate, 37° C. for 15 minutes; compounds preincubated with liver microsomes at 37° C. for 30 minutes. The procedure:
HMG-CoA reductase is a rate-limiting enzyme in the cholesterol biosynthesis, catalyzing the following reaction.
[^14C] HMG-CoA+2NADPH+2H^+→[^14C] mevanolate+CoA+2NADP^+ microsomes,
HMG-CoA as a substrate. The reaction was carried out in the presence of 100 mM KH2PO4, 20 mM G-6-P, 2.5 mM NADPH, 10 mM EDTA, 5 mM DTT and […] G-6-P dehydrogenase, at 37° C. for 15 minutes and quantitating [^14C] mevalonate as an end product.

Results on twelve compounds are retold here after patent US20040102511A1, “Substituted pyrrole derivatives” (priority 2002, published 2004).

Structures can show the parent of a compound that is named as a salt.

In turn, `CC(C)c1c(C(=O)Nc2ccccc2F)c(-c2ccccc2)c(-c2ccc(F)cc2)n1CC[C@@H](O)C[C@@H](O)CC(=O)O` [Compound No. 2, (3R,5R)-7-[2-(4-Fluorophenyl)-5-isopropyl-3-phenyl-4-[(2-fluorophenylamino)carbonyl]-pyrrol-1-yl]-3,5-dihydroxy-1-heptanoic acid calcium salt] displayed an IC50 of 0.0177 nM.

`CC(C)c1c(C(=O)Nc2ccccc2)c(-c2ccccc2)c(-c2ccc(F)cc2F)n1CC[C@@H](O)C[C@@H](O)CC(=O)O` [Compound No. 12, (3R,5R)-7-[2-(2,4-Difluorophenyl)-5-isopropyl-3-phenyl-4-[(phenylamino)carbonyl]-pyrrol-1-yl]-3,5-dihydroxy-1-heptanoic acid calcium salt] gave a half-inhibitory concentration (IC50) of 0.0123 nM.

In turn, `CC(C)c1c(C(=O)Nc2ccccc2)c(-c2ccccc2)c(-c2ccc(F)c(F)c2)n1CC[C@@H](O)C[C@@H](O)CC(=O)O` [Compound No. 13, (3R,5R)-7-[2-(3,4-Difluorophenyl)-5-isopropyl-3-phenyl-4-[(phenylamino)carbonyl]-pyrrol-1-yl]-3,5-dihydroxy-1-heptanoic acid calcium salt] showed an IC50 of 0.00625 nM.

With `Cc1ccc(-c2c(C(=O)Nc3ccccc3)c(C(C)C)n(CC[C@@H](O)C[C@@H](O)CC(=O)O)c2-c2ccc(F)cc2)cc1` [Compound No. 17, (3R,5R)-7-[2-(4-Fluorophenyl)-5-isopropyl-3-(4-methylphenyl)-4-[(phenylamino)carbonyl]-pyrrol-1-yl]-3,5-dihydroxy-1-heptanoic acid calcium salt], it took 0.034 nM to reach half-maximal inhibition (IC50).

`CC(C)c1c(C(=O)Nc2ccccc2)c(-c2ccc(C(F)(F)F)cc2)c(-c2ccc(F)cc2)n1CC[C@@H](O)C[C@@H](O)CC(=O)O` [Compound No. 18, (3R,5R)-7-[2-(4-Fluorophenyl)-5-isopropyl-3-(4-trifluoromethylphenyl)-4-[(phenylamino)carbonyl]-pyrrol-1-yl]-3,5-dihydroxy-1-heptanoic acid calcium salt] returned an IC50 of 0.0126 nM.

In the case of `O=C(O)C[C@H](O)C[C@H](O)CCn1c(-c2ccc(F)cc2)c(-c2ccccc2)c(C(=O)Nc2ccccc2)c1C1CC1` [Compound No. 19, (3R,5R)-7-[2-(4-Fluorophenyl)-5-cyclopropyl-3-phenyl-4-[(phenylamino)carbonyl]-pyrrol-1-yl]-3,5-dihydroxy-1-heptanoic acid calcium salt], the IC50 was found to be 0.0124 nM.

Compound `CC(C)c1nc(N(C)S(C)(=O)=O)nc(-c2ccc(F)cc2)c1/C=C/[C@@H](O)C[C@@H](O)CC(=O)O` [Rosuvastatin, reference compound] returned an IC50 of 0.0385 nM.

The compound “(3R,5R)-7-[2,3-Di-(4-fluorophenyl)-5-isopropyl-4-[(phenylamino) carbonyl]-pyrrol-1-yl]-3,5-dihydroxy-1-heptanoic acid calcium salt [Compound No. 16]” gave an IC50 of 0.0345 nM.

On to “(3R,5R)-7-[2-(4-Fluorophenyl)-5-isopropyl-3-(2,4-difluorophenyl)-4-[(phenylamino)carbonyl]-1H-pyrrol-3,5-dihydroxy-1-heptanoic acid calcium salt [Compound No. 15]”, for which the IC50 came to 0.0122 nM.

“(3R,5R)-7-[2-(4-Fluorophenyl)-5-isopropyl-3-phenyl-4-[(3-fluorophen ylamino)carbonyl]-pyrrol-1-yl]-3,5-dihydroxy 1-heptanoic acid calcium salt [Compound No. 3]” yielded an IC50 of 0.0239 nM.

The compound “(3R,5R)-7-[2-(4-Fluorophenyl)-5-isopropyl-3-phenyl-4-[(4-fluorophenylamino)carbonyl]-pyrrol-1-yl]-3,5-dihydroxy-1-heptanoic acid calcium salt [Compound No. 4]” yielded an IC50 of 0.0098 nM.

With “(3R,5R)-7-[2-(4-Fluorophenyl)-5-isopropyl-3-phenyl-4-[(pyridin-2-yl-amino)carbonyl]pyrrol-1-yl]-3,5-dihydroxy-1-heptanoic acid calcium salt [Compound No. 5]”, the IC50 came out at 0.0195 nM.
